Data on four compounds can be found in patent publication USRE34712E, “Pharmaceutically useful (+)-1-(3-dimethylaminopropyl)-1-(4'-fluorophenyl)-1,3-dihydroiso benzofuran-5-carbonitrile and non-toxic acid addition salts thereof” (priority 1988, dated 1994).

The subject of data set [1] is effect of 5-HTP (5-HT syndrome). The data set can be described thus: 5-HTP-potentiation (5-HT syndrome in mice). Format: in vivo. The conditions noted are these: 5-HTP 100 mg/kg i.v. 30 minutes after test substance, log-probit analysis. The protocol:
The test evaluates the ability of the substance to potentiate the effect of 5-HTP, which results in development of 5-HT syndrome (Christensen, Fjalland, Pedersen, Danneskiold-Samsoe and Svendsen; European J. Pharmacol. 41, 153-162, 1977).
Each treatment group consists of 3 mice, and two groups are treated with the highest test dose. A control group only treated with 5-HTP is included and a group treated with citalopram 10 mg/kg and 5-HTP is used as reference for full 5-HT syndrome.
30 minutes after the administration of the test substance, the other groups are given 5-HTP (100 mg/kg) i.v. (injection time 5-10 sec.). After this 5-HTP dose normal, untreated mice remain unaffected, but if the animals have been pretreated with a substance, which inhibits the uptake of 5-HT or a 5-HT agonist, a 5-HTP syndrome will occur. The symptoms are the same as previously described: (1) excitation, (2) tremor, and (3) abduction of the hind limbs. The animals are observed for 15 minutes and each animal is given one point for each symptom present. Again the result is stated in fractions: 0/9, 1/9, . . . 9/9, where 0, 1, . . . , 9 are the number of points per group after the dose in question. The ED50 value is calculated by log-probit analysis.

Data set [2] concerns depression in man. The conditions noted are these: racemate, Ref. A. Gravem et al. 1987; cited from earlier work.
Data set [3] is classed as physicochemical. As to the method: A 2:1 addition compound of the (+)-isomer with L(+)-tartaric acid was prepared in the following manner: 4 g of the (+)-isomer as base were dissolved in 100 ml of diethyl ether and extracted into 100 ml of water containing 0.8 g of L(+)-tartaric acid by stirring. The organic phase was separated and discarded. The water-phase was freeze-dried in vacuo (<0.1 mm Hg) for 18 hours leaving 3.8 g of a white powder of the title compound.

For `CN(C)CCCC1(c2ccc(F)cc2)OCc2cc(C#N)ccc21` (racemic) [(±)-citalopram, 1-(3-dimethylaminopropyl)-1-(4'-fluorophenyl)-1,3-dihydroisobenzofuran-5-carbonitrile, reference compound], the ED50 in data set [1] (Mus musculus, iv, 0.5 h, read-out: 5-HTP pot. ED50) was found to be 3.3 µmol/kg. The “antidepressant efficacy in man” value in data set [2] is “efficient antidepressant compound in man”.

As to `CN(C)CCCC1(c2ccc(F)cc2)OCc2cc(C#N)ccc21` (single isomer, unassigned) [2:1 addition compound of the (+)-isomer with L(+)-tartaric acid], the “stability” value in data set [3] was “stable”. Further, the “hygroscopicity” value in data set [3] (freeze-dried white powder) is recorded as “not hygroscopic”.

Regarding `CN(C)CCCC1(c2ccc(F)cc2)OCc2cc(C#N)ccc21` (single isomer, unassigned; (-)) [(-)-citalopram, (-)-1-(3-dimethylaminopropyl)-1-(4'-fluorophenyl)-1,3-dihydroisobenzofuran-5-carbonitrile], in data set [1], the “5-HTP pot. ED50” value is 120 µmol/kg.

Take `CN(C)CCCC1(c2ccc(F)cc2)OCc2cc(C#N)ccc21` (single isomer, unassigned; (+)) [(+)-citalopram, (+)-1-(3-Dimethylaminopropyl)-1-(4'-fluorophenyl)-1,3-dihydroisobenzofuran-5-carbonitrile]: the “5-HTP pot. ED50” value in data set [1] stood at 2.0 µmol/kg.

As usually defined, the ED50 is the dose at which the effect has come halfway, by size or by number of responders.
